pIC50: −log10 of the molar value. Active and inactive are the calls of the source. The calls are words filed in the database; no cut-off is given here.
Key:
[1] = target: Proto-oncogene tyrosine-protein kinase Src (Homo sapiens, UniProt P12931, C188A); assay: (§1) Binding affinity for Cys188Ala Src SH2 domain mutant using BIAcore binding assay
[2] = target: T1, Proto-oncogene tyrosine-protein kinase Src (Homo sapiens, UniProt P12931); assay: Selectivity for Src SH2 domain compared to Cys188Ala Src SH2 domain mutants
[3] = target: T1, Proto-oncogene tyrosine-protein kinase Src; assay: Binding affinity for wild type Src SH2 domain using BIAcore binding assay
[4] = test system: Proto-oncogene tyrosine-protein kinase Src (Homo sapiens), P12931 [C188A]; assay: as §1; details: concentration not given here

Structure (SMILES) | pIC50 [1] | Selectivity [2] | pIC50 [3] | inhibition [4] [%]
COC(=O)C(=O)C(=O)c1ccc(CC(NC(C)=O)C(=O)N[C@@H](CCC(=O)O)C(=O)N[C@H](C(=O)N[C@@H](CC(C)C)C(N)=O)[C@@H](C)O)cc1 (stereo not given in full) | < 3.00 | Active | 5.07 | 
CC[C@H](C)[C@H](NC(=O)[C@H](CCC(=O)O)NC(=O)[C@H](CCC(=O)O)NC(=O)[C@@H](N)Cc1ccc(OP(=O)(O)O)cc1)C(=O)O | 5.88 |  | 5.92 | 
CC[C@H](C)[C@H](NC(=O)[C@H](CCC(=O)O)NC(=O)[C@H](CCC(=O)O)NC(=O)C(Cc1ccc(C(=O)C(=O)C(=O)OC)cc1)NC(C)=O)C(N)=O (stereo not given in full) | < 3.00 | Active | 5.64 | 
COC(=O)C(O)(O)C(=O)c1ccccc1 | < 3.00 | Active | 4.00 | 

Other lines, results leading:

pIC50 [1] | Selectivity [2] | pIC50 [3] | inhibition [4] [%] | Structure (SMILES)
< 3.00 | Active | 4.70 |  | CC[C@H](C)[C@H](NC(=O)[C@H](CCC(=O)O)NC(=O)[C@H](CCC(=O)O)NC(=O)CCc1ccc(C(=O)C(O)(O)C(=O)OC)cc1)C(N)=O
 | inactive | 3.60 | 15 | CC[C@H](C)[C@H](NC(=O)[C@H](CCC(=O)O)NC(=O)[C@H](CCC(=O)O)NC(=O)CCc1cccc(C(=O)O)c1)C(N)=O
< 3.00 | Active | 4.74 |  | CC[C@H](C)[C@H](NC(=O)[C@H](CCC(=O)O)NC(=O)[C@H](CCC(=O)O)NC(=O)CCc1cccc(C(=O)C(O)(O)C(=O)OC)c1)C(N)=O

From ChEMBL document CHEMBL1134113, “Selective inhibition of Src SH2 by a novel thiol-targeting tricarbonyl-modified inhibitor and mechanistic analysis by (1)H/(13)C NMR spectroscopy” (Bioorg Med Chem Lett, 2001)
